Laboratory results reported in patent publication US12343352B2, “N-(phenylsulfonyl)benzamides and related compounds as Bcl-2 inhibitors” (ASCENTAGE PHARMA (SUZHOU) CO., LTD., priority 2019, dated 2025).

Columns and labels:
[1] = Dog liver microsome assay / metabolites in dog plasma; assay type: in vitro ADME
Description: (§1) Metabolism studies of Compound 1 and Compound Z were evaluated in both mouse and dog liver microsome assays.

CYP enzymes = assay: Comparative metabolism studies: metabolizing CYP enzymes and CYP inhibition/induction (liver microsome assays); assay type: in vitro ADME
Description: as §1

[2] = Pharmacokinetic properties of Compound 1 compared with Compound Z (systemic exposure and tumor tissues); assay type: in vivo; conditions: versus Compound Z
[3] = Mouse liver microsome assay / metabolites in mouse plasma; assay type: in vitro ADME
Description: as §1

[4] = Steady state pharmacokinetics in patients following multiple oral doses; assay type: in vivo; conditions: human, plasma, multiple oral doses of 400 mg once daily; for AUC(0-t): read-out: AUC(0-24 h); for half-life: read-out: T½ (converted)
[5] = Metabolites in human plasma; assay type: in vivo

| SMILES | metabolites found in dog plasma [1] | inhibition or induction of major CYP enzymes (CYP enzymes) | mainly metabolized by (CYP enzymes) (CYP enzymes; mouse, dog, microsomes) | Cmax in systemic exposure relative to Compound Z ([2]; systemic exposure) | half-life in systemic exposure relative to Compound Z ([2]; systemic exposure) | Cmax in tumor tissues relative to Compound Z ([2]; tumor tissues) | half-life in tumor tissues relative to Compound Z ([2]; tumor tissues) | major metabolite (>10%) in mouse plasma ([3]; mouse liver microsome assay) | Cmax [4] [ng/mL] | Tmax [4] [h] | AUC(0-t) [4] [ng·h/mL] | half-life [4] [h] | mainly metabolized by (CYP enzymes) (CYP enzymes; mouse and dog liver microsome assays) | major metabolite (>10%) in human plasma [5] | other metabolites found in mouse plasma ([3]; mouse plasma) |
| --- | --- | --- | --- | --- | --- | --- | --- | --- | --- | --- | --- | --- | --- | --- | --- |
| O=C(NS(=O)(=O)c1ccc(NC[C@H]2COCCO2)c([N+](=O)[O-])c1)c1ccc(N2CCN(CC3=C(c4ccc(Cl)cc4)CC4(CCC4)CC3)CC2)cc1Oc1cnc2[nH]ccc2c1 [Compound 1, (S)-N-((4-(((1,4-dioxan-2-yl)methyl)amino)-3-nitrophenyl)sulfonyl)-2-((1H-pyrrolo[2,3-b]pyridin-5-yl)oxy)-4-(4-((6-(4-chlorophenyl)spiro[3.5]non-6-en-7-yl)methyl)piperazin-1-yl)benzamide] | minor oxidation metabolites | not found to inhibit or induce any major CYP enzymes | CYP3A4 and CYP2C8 | higher | shorter | higher | similar | amide bond hydrolysis M2 | 970 | 6 | 9960 | 4.43 |  |  |  |
| CC1(C)CCC(CN2CCN(c3ccc(C(=O)NS(=O)(=O)c4ccc(NCC5CCOCC5)c([N+](=O)[O-])c4)c(Oc4cnc5[nH]ccc5c4)c3)CC2)=C(c2ccc(Cl)cc2)C1 [Compound Z, Venetoclax, reference compound] | minor oxidation metabolites |  |  |  |  |  |  |  | 2180 | 7 | 35500 | 26 | CYP3A4 and CYP3A5 | oxidative metabolite M27 | minor oxidation metabolites |
